Here are results for three compounds from article PMC11659602, “Discovering covalent cyclic peptide inhibitors of peptidyl arginine deiminase 4 (PADI4) using mRNA-display with a genetically encoded electrophilic warhead” (Communications Chemistry, 2024).

For test [1], the target named is T1, PADI4 (Homo sapiens, UniProt Q9UM07).
T1 construct: His6; made in house
The experiment in a line: COLDER inhibition assay, BAEE substrate, with or without 1 h preincubation. The class given is biochemical. The settings on record: for remaining activity at 0.003 µM: peptide 0.003 µM; for remaining activity at 0.01 µM: peptide 0.01 µM; for remaining activity at 0.03 µM: peptide 0.03 µM; for remaining activity at 0.1 µM: peptide 0.1 µM; for remaining activity at 0.3 µM: peptide 0.3 µM; for remaining activity at 1 µM: peptide 1 µM; for IC50: COLDER; for remaining activity at 3 µM: peptide 3 µM; for remaining activity at 10 µM: peptide 10 µM; for remaining activity at 30 µM: peptide 30 µM; for remaining activity at 50 µM: peptide 50 µM. The protocol:
PADI4 citrullination activity was analysed using the COLDER assay in 96-well plates. Peptide dilutions were prepared from a 500 µM stock, to give a 10 times concentrated dilution series (500 µM, 300 µM, 100 µM, 30 µM, 10 µM, 3 µM, 1 µM, 0.3 µM, 0.1 µM and 0.03 µM) in COLDER buffer (50 mM HEPES, 150 mM NaCl and 2 mM DTT, pH 7.5) containing 1% DMSO. In triplicate, each was diluted 10-fold further when mixed with 50 nM His-PADI4, 0.6 mg/mL BSA and 10 mM CaCl2, in COLDER buffer. With or without one hour of incubation, 10 mM N^α-Benzoyl-L-arginine ethyl ester hydrochloride (BAEE, Merck) was added to initiate the reaction (50 µL final volume). After 30 min at rt, EDTA (50 mM final concentration) was used to quench the reaction and 200 µL of COLDER solution containing 20 mM Diacetyl monoxime/2,3-butanedione monoxime (Merck), 0.5 mM Thiosemicarbazide (Acros Organics), 2.25 M H3PO4, 4.5 M H2SO4 and 1.5 mM NH4Fe(SO4)2.12H2O was added to each well. Samples were incubated for 20 min at 95 °C before measuring absorbance at 540 nm on a CLARIOstar Plus (BMG LABTECH). Data analysis was performed with GraphPad Prism. Data are presented as the average ± standard error of the mean from at least two independent replicates.

Test [2] deals with T1, PADI4. Briefly: Surface plasmon resonance (SPR), single cycle kinetics. In kind it is binding. The settings on record: for Ki: k-1/k+1. As for the experimental part:
S8. Surface plasmon resonance (SPR)
Using a Biacore S200 (GE Healthcare), biotinylated His-PADI4 (80 nM) was immobilised on a CAP chip (GE Healthcare) to a response unit of approx. 3000. At 25 °C, single cycle kinetics mode was used with 5 samples of a 3-fold dilution series of peptides PADI4_3_H4(2), cP4_2, […]
mM HEPES, 150 mM NaCl, 10 mM CaCl2, 0.05% Tween-20, 0.1% DMSO (pH 7.5). After each cycle, regeneration of the chip was carried out as per the manufacturer’s protocol. Data were analysed with the Biacore S200 Evaluation Software, each in triplicate. Warhead-containing peptides were analysed using the two-state reaction model, with the rate constant for the reverse second step (k-2) set to zero. The equilibrium constant of the reversible binding step, Ki, was calculated as the ratio of k-1/k+1 and the rate constant of the irreversible chemical step, kinact, as k+2. The Arg4, Cit4 and Me4 peptides were fitted using a 1:1 binding model. […]
Background: Surface plasmon resonance follows binding to a sensor surface in real time, without labels.

Where [3] appears, read: 1 h, T=1 (1 h preincubation), read-out: PADI4 activity, dose-response data of Figure S15 (individual replicates).
Setting [4] is: 1 h preincubation of peptide and PADI4, 10 mM CaCl2, read-out: IC50 Values 1 h preincubation.
Setting [5] is: T=0 (no preincubation), read-out: PADI4 activity, dose-response data of Figure S15 (individual replicates).
Setting [6] is: each replicate, read-out: k2 / kinact.
Setting [7] is: two-state reaction model, k+2, read-out: SPR kinact (converted).
Setting [8] is: no preincubation of peptide and PADI4, 10 mM CaCl2, read-out: IC50 Values 0 h preincubation.
Setting [9] is: T=0, values starred, read-out: PADI4 activity normalised to 0.1% DMSO.
Where [10] appears, read: T=0, read-out: PADI4 activity normalised to 0.1% DMSO.
[11] abbreviates: T=1, read-out: PADI4 activity normalised to 0.1% DMSO.
The mark [12] stands for this setting: no preincubation, read-out: PADI4 activity, normalised (Figure 4b dose-response).

Each structure is given as a SMILES string. Several values for one entry are separate records, joined by “and”; a condition that tells them apart may be missing. Identical values can stand only once. Like-named read-outs stand apart in the source and are kept apart here. *1 amine or outer side, *2 acyl side, *3 side chain or, on linkers, in order; H or OH if unused. Where a SMILES comes first, the peptide text is derived from it. Bridges are numbered along the chain shown (N, C = ends). [ ]: non-standard residue; d: D form. Orn(fluoroacetimidoyl) = N=C(CF)NCCC[C@H](N)C(=O)O; X1 = N=C(CCl)NCCC[C@H](N[*:1])C(=O)[*:2]

As a reminder, the IC50 is the concentration at which inhibition is half-maximal. What is called Ki is a dissociation constant, usually derived from enzyme kinetics or from competition with a known ligand. A low value points to tighter binding. The kinact/KI is the second-order rate constant of inactivation.

T1 sequence (Q9UM07 whole entry): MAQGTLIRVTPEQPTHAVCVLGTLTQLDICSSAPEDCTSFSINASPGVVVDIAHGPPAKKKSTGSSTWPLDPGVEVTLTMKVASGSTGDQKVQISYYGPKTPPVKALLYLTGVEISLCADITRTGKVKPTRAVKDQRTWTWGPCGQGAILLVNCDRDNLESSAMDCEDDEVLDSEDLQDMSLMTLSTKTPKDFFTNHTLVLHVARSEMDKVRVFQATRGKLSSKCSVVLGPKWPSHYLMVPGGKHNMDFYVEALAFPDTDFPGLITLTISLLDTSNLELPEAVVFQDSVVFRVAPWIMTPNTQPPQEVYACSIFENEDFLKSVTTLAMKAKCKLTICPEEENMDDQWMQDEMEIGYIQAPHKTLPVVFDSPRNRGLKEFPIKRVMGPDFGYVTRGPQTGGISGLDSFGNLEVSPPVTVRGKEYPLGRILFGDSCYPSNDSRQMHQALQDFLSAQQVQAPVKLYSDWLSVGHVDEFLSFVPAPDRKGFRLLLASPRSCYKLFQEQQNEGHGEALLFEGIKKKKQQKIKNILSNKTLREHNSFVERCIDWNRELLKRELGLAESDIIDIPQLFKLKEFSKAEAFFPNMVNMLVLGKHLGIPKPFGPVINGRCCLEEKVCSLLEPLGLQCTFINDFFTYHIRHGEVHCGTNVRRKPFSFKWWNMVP

Regarding `CC[C@H](C)[C@@H]1NC(=O)[C@H](CCCNC(=N)N)NC(=O)[C@H](Cc2ccc(O)cc2)NC(=O)[C@H](CCCNC(=N)N)NC(=O)[C@H](CCC(=O)O)NC(=O)[C@H](CCCNC(=N)CF)NC(=O)[C@H](CC(N)=O)NC(=O)[C@H](CC(C)C)NC(=O)[C@@H](Cc2ccc(O)cc2)NC(=O)CSC[C@@H](C(=O)NCC(N)=O)NC(=O)[C@H](CO)NC1=O` [cP4_18] ({CH2CO}-[dY]LN[Orn(fluoroacetimidoyl)]ERYRISCG-NH2; thioether N-11), on PADI4 [1] (setting [3]), the remaining activity at 0.003 µM amounted to 101%, the remaining activity at 0.01 µM stood at 99.7%, the remaining activity at 0.03 µM amounted to 95.4% and the remaining activity at 0.1 µM was determined as 77.6%. Also, on PADI4 [1] (setting [3]), the remaining activity at 0.3 µM is 35.4% and the remaining activity at 1 µM is 10%. Moreover, on PADI4 [1] (setting [4]), the IC50 amounted to 180 nM. In addition, on PADI4 [1] (setting [5]), the remaining activity at 0.003 µM was 106%, the remaining activity at 0.01 µM was 108%, the remaining activity at 0.03 µM was 107% and the remaining activity at 0.1 µM amounted to 110%. Moreover, at PADI4 [1] (setting [5]), the remaining activity at 0.3 µM is 107%, the remaining activity at 1 µM was found to be 102%, the remaining activity at 3 µM came to 94.6% and the remaining activity at 10 µM is 64.3%. At PADI4 [1] (setting [5]), the remaining activity at 30 µM was determined as 31.1% and the remaining activity at 50 µM is 21.4%. This compound also displayed a k2 / kinact on PADI4 [2] (each replicate) of 0.0019 s⁻¹. The kinact at PADI4 [2] (setting [6]) stood at 0.0027 s⁻¹. Also, on PADI4 [2] (setting [7]), the kinact is 0.00317 s⁻¹. On PADI4 [2] (two-state reaction model), this compound showed a Ki of 810 ± 80 nM.
In the case of `CC[C@H](C)[C@@H]1NC(=O)[C@@H](Cc2ccc(O)cc2)NC(=O)CSC[C@@H](C(=O)NCC(N)=O)NC(=O)[C@H](CO)NC(=O)[C@H](CCCNC(=N)CF)NC(=O)[C@H](CC(=O)O)NC(=O)[C@H](CCCNC(=N)CF)NC(=O)[C@H](CC(C)C)NC(=O)CNC(=O)[C@H](Cc2c[nH]c3ccccc23)NC1=O` [cP4_2, yIWGL(2)D(2)SCG] ({CH2CO}-[dY]IWGL[Orn(fluoroacetimidoyl)]D[Orn(fluoroacetimidoyl)]SCG-NH2; thioether N-10), the IC50 on PADI4 [1] (setting [4]) stood at 870 ± 60 nM. In addition, the IC50 at PADI4 [1] (setting [8]) is greater than 50000 nM. In addition, at PADI4 [1] (setting [9]), the remaining activity at 0.003 µM amounted to 107% and the remaining activity at 0.01 µM was 107%. Further, on PADI4 [1] (setting [10]), the remaining activity at 0.03 µM is 107%, the remaining activity at 0.1 µM came out at 108%, the remaining activity at 0.3 µM was found to be 106% and the remaining activity at 1 µM turned out to be 107%. Besides, on PADI4 [1] (setting [10]), the remaining activity at 3 µM was 105%, the remaining activity at 10 µM is 101% and the remaining activity at 30 µM is 80.9%. On PADI4 [1] (setting [11]), the remaining activity at 0.1 µM stood at 93.3%, the remaining activity at 0.3 µM was 74.9%, the remaining activity at 1 µM came to 42.9% and the remaining activity at 3 µM was found to be 7.63%. Besides, the remaining activity at 10 µM at PADI4 [1] (setting [11]) was 3.92%. Also, on PADI4 [1] (T=0 (no preincubation), read-out: PADI4 activity normalised to 0.1% DMSO), the remaining activity at 50 µM was found to be 64.4%. For the same compound, the inactivation efficiency (kinact/KI) on PADI4 [2] was 1530 M⁻¹ s⁻¹. Moreover, the k2 / kinact on PADI4 [2] (each replicate) is 0.0026 s⁻¹ and 0.0019 s⁻¹. Besides, the kinact at PADI4 [2] (setting [6]) is 0.0014 s⁻¹. The kinact at PADI4 [2] (setting [7]) is 0.002 s⁻¹. Moreover, at PADI4 [2] (two-state reaction model), the Ki stood at 1300 ± 500 nM.
For `N=C(N)NCCC[C@@H]1NC(=O)[C@H](CCCNC(=N)CCl)NC(=O)[C@H](CC(=O)O)NC(=O)[C@H](Cc2ccc(O)cc2)NC(=O)[C@H](CCCCN)NC(=O)[C@H](CO)NC(=O)[C@@H](Cc2ccc(O)cc2)NC(=O)CSC[C@@H](C(=O)NCC(N)=O)NC(=O)[C@H](CC(=O)O)NC(=O)[C@H](CCCNC(=N)N)NC(=O)[C@@H]2CCCN2C(=O)[C@H](CO)NC1=O` [Cl4] ({CH2CO}-[dY]SKYD[X1]RSPRDCG-NH2; thioether N-12), at PADI4 [1] (1 h, T = 1 h preincubation, read-out: PADI4 activity, normalised (Figure 4b dose-response)), the remaining activity at 0.1 µM is 27.3%. Moreover, the IC50 on PADI4 [1] (setting [4]) stood at 66 ± 9 nM. Further, the IC50 at PADI4 [1] (setting [8]) was determined as 8200 ± 800 nM. Further, on PADI4 [1] (setting [12]), the remaining activity at 0.01 µM was 85.9%, the remaining activity at 0.03 µM is 90.5%, the remaining activity at 0.1 µM stood at 86.7% and the remaining activity at 0.3 µM was 86.6%. Moreover, at PADI4 [1] (setting [12]), the remaining activity at 1 µM came out at 82.4%, the remaining activity at 10 µM was found to be 34.1%, the remaining activity at 30 µM came out at 12.5% and the remaining activity at 50 µM is 6.56%. For the same compound, at PADI4 [2], the second-order inactivation constant (kinact/KI) is 1170 M⁻¹ s⁻¹. In addition, the kinact on PADI4 [2] (setting [7]) is 0.00467 s⁻¹. The Ki on PADI4 [2] (two-state reaction model) stood at 4000 ± 200 nM.
